Assay results from patent US9447148B2, “Melanocortin-1 receptor-specific cyclic peptides” (Palatin Technologies, Inc., priority 2009, dated 2016).
Bridge positions count the residues as written; N and C are the ends. Square brackets hold non-standard residues; d marks the D form. Peptide text beside a SMILES is read from it. dPhe(3,4-F2) = N[C@H](Cc1ccc(F)c(F)c1)C(=O)O; dPhe(3-Cl) = N[C@H](Cc1cccc(Cl)c1)C(=O)O; dPhe(4-Me) = Cc1ccc(C[C@@H](N)C(=O)O)cc1; dPhe(2-Cl) = N[C@H](Cc1ccccc1Cl)C(=O)O; Nle = CCCC[C@H](N)C(=O)O; Orn = NCCC[C@H](N)C(=O)O; Dab = NCC[C@H](N)C(=O)O

Experiments:
hMCR-4 = hMCR-4 (Homo sapiens (Human), UniProt P32245); assay: Competitive inhibition binding assay using [I125]-NDP-α-MSH, hMCR-4; settings: membrane homogenates of HEK-293 cells, human recombinant receptor, averaged, read-out: MC-4 Ki (average)
Protocol: (§1) A competitive inhibition binding assay was performed using membrane homogenates prepared from HEK-293 cells that express recombinant hMCR-1a or hMCR-4 (in each instance where the h prefix refers to human), or alternatively membrane homogenates from B16-F10 mouse melanoma cells containing endogenous murine MCR-1. In the examples that follow, all MCR-1 and MCR-4 values are for human recombinant receptors, unless otherwise noted. Assays were performed in 96 well polypropylene round-bottom plates (VWR catalog number 12777-030). […] After incubation for 90 minutes at 37° C., the assay mixture was filtered onto GF/B Unifilter plates (Perkin-Elmer catalog number 6005177) and washed with 3 mL of ice-cold buffer per well. Filters were air dried and 35 μL of scintillation cocktail added to each well. Plates were counted in a Microbeta counter for bound radioactivity. […] Each assay was conducted in duplicate and the actual mean values are described, with results less than 0% reported as 0%. Ki values for peptides of the present invention were determined using Graph-Pad Prism® curve-fitting software.
(§2) Peptides of the following structures were synthesized and averaged MCR-1 and MCR-4 Ki values were determined as indicated. […] All results are expressed in nM except for Emax values, which are percentage values. Peptides with the captioned primary sequence were synthesized and purified as described in Section 5 above, with the resulting peptide having the structure depicted.

hMCR-1a = hMCR-1a (Homo sapiens (Human), UniProt Q01726); assay: Competitive inhibition binding assay using [I125]-NDP-α-MSH, hMCR-1a; settings: membrane homogenates of HEK-293 cells, human recombinant receptor, averaged, read-out: MC-1 Ki (average)
Protocol: as §1, §2

hMCR-1 = hMCR-1 (Homo sapiens (Human), UniProt Q01726); assay: Assay for agonist activity: intracellular cAMP accumulation in HBL human melanoma cells; assay type: cell-based; settings: for EC50: HBL cells expressing hMCR-1, averaged, read-out: MC-1 EC50 (average; cAMP HBL); for MC-1 Emax (average; cAMP HBL): HBL cells, maximum efficacy compared to reference agonist NDP-α-MSH
Protocol: Confluent HBL cells that express hMCR-1 or HEK-293 cells that express recombinant hMCR-4 were detached from culture plates by incubation in enzyme-free cell dissociation buffer. Dispersed cells were suspended in Earle's Balanced Salt Solution containing 10 mM HEPES (pH 7.5), 1 mM MgCl2, 1 mM glutamine, 0.5% albumin and 0.3 mM 3-isobutyl-1-methyl-xanthine (IBMX), a phosphodiesterase inhibitor. The cells were plated in 96-well plates at a density of 0.4×10^5 cells per well for HBL cells and 0.5×10^5 cells per well for HEK-293 cells and pre-incubated for 10 minutes. Cells were exposed for 15 minutes at 37° C. to peptides of the present invention dissolved in DMSO (final DMSO concentration of 1%) at a concentration range of 0.05-5000 nM in a total assay volume of 200 μL. […] Data analysis was performed by nonlinear regression analysis with Graph-Pad Prism® software.
as §2

hMCR-1a, sequence (Q01726 whole entry): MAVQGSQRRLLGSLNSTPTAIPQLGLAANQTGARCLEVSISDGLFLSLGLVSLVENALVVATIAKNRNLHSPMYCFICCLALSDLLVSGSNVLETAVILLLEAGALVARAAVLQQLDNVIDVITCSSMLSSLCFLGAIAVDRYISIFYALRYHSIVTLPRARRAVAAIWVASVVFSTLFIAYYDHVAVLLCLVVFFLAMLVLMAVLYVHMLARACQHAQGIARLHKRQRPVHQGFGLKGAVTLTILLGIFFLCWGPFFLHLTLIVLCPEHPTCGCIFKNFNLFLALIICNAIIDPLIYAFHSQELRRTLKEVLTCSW
hMCR-1, sequence (Q01726 whole entry): as above
hMCR-4, sequence (P32245 whole entry): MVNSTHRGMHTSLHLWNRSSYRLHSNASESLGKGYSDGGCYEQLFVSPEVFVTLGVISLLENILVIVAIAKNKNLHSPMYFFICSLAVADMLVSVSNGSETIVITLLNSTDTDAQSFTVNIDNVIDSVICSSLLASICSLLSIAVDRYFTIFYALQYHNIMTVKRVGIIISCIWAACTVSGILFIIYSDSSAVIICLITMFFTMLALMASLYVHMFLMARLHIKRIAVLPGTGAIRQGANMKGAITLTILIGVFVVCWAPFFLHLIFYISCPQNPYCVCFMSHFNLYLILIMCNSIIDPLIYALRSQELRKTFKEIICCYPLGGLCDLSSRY

CCCC[C@H](NC(C)=O)C(=O)N[C@H]1CCC(=O)NCC[C@@H](C(N)=O)NC(=O)[C@H](CCCNC(=N)N)NC(=O)[C@@H](Cc2ccccc2Cl)NC(=O)[C@H](CCCN)NC1=O [Example 9.57, Ac-Nle-cyclo(Glu-Orn-D-Phe(2-Cl)-Arg-Dab)-NH2] (Ac-[Nle]E[Orn][dPhe(2-Cl)]R[Dab]-NH2; lactam 2-6)
Ki (hMCR-4): 10000 nM
Ki (hMCR-1a): 30 nM
EC50 (hMCR-1): 1 nM

CCCC[C@H](NC(C)=O)C(=O)N[C@H]1CCC(=O)NCC[C@@H](C(=O)N[C@@H](C)C(N)=O)NC(=O)[C@H](CCCNC(=N)N)NC(=O)[C@@H](Cc2ccccc2)NC(=O)[C@H](Cc2c[nH]cn2)NC1=O [Example 9.25, Ac-Nle-cyclo(Glu-His-D-Phe-Arg-Dab)-Ala-NH2] (Ac-[Nle]EH[dF]R[Dab]A-NH2; lactam 2-6)
Ki (hMCR-4): 7480 nM
Ki (hMCR-1a): 2 nM
EC50 (hMCR-1): 0.08 nM

CCCC[C@H](NC(C)=O)C(=O)N[C@H]1CCC(=O)NCC[C@@H](C(N)=O)NC(=O)[C@H](CCCNC(=N)N)NC(=O)[C@@H](Cc2ccc(F)c(F)c2)NC(=O)[C@H](CCCN)NC1=O [Example 9.62, Ac-Nle-cyclo(Glu-Orn-D-Phe(3,4-F)-Arg-Dab)-NH2] (Ac-[Nle]E[Orn][dPhe(3,4-F2)]R[Dab]-NH2; lactam 2-6)
Ki (hMCR-4): 10000 nM
Ki (hMCR-1a): 40 nM
EC50 (hMCR-1): 1 nM

CCCC[C@H](NC(C)=O)C(=O)N[C@H]1CCC(=O)NCC[C@@H](C(N)=O)NC(=O)[C@H](CCCNC(=N)N)NC(=O)[C@@H](Cc2ccccc2)NC(=O)[C@H](CCCN)NC1=O [Example 9.56, Ac-Nle-cyclo(Glu-Orn-D-Phe-Arg-Dab)-NH2] (Ac-[Nle]E[Orn][dF]R[Dab]-NH2; lactam 2-6)
Ki (hMCR-4): 3620 nM
Ki (hMCR-1a): 4 nM

CCCC[C@H](NC(C)=O)C(=O)N[C@H]1CCC(=O)NCC[C@@H](C(=O)N[C@@H](Cc2c[nH]c3ccccc23)C(N)=O)NC(=O)[C@H](CCCNC(=N)N)NC(=O)[C@@H](Cc2ccccc2)NC(=O)[C@H](CCCN)NC1=O [Example 9.55, Ac-Nle-cyclo(Glu-Orn-D-Phe-Arg-Dab)-Trp-NH2]
MC-1 Emax (average; cAMP HBL) (hMCR-1): 109% ^

CCCC[C@H](NC(C)=O)C(=O)N[C@H]1CCC(=O)NCC[C@@H](C(N)=O)NC(=O)[C@H](C)NC(=O)[C@@H](Cc2ccccc2)NC(=O)[C@H](Cc2c[nH]cn2)NC1=O [Example 9.45, Ac-Nle-cyclo(Glu-His-D-Phe-Ala-Dab)-NH2] (Ac-[Nle]EH[dF]A[Dab]-NH2; lactam 2-6)
MC-1 Emax (average; cAMP HBL) (hMCR-1): 73%

CCCC[C@H](NC(C)=O)C(=O)N[C@H]1CNC(=O)CCC(=O)NCC[C@@H](C(=O)N[C@@H](Cc2c[nH]c3ccccc23)C(N)=O)NC(=O)[C@H](CCCNC(=N)N)NC(=O)[C@@H](Cc2ccccc2)NC(=O)[C@H](Cc2c[nH]cn2)NC1=O [Example 9.43]
Ki (hMCR-4): 860 nM
Ki (hMCR-1a): 0.065 nM

N=C(N)NCCC[C@@H]1NC(=O)[C@@H](Cc2ccccc2)NC(=O)[C@H](Cc2c[nH]cn2)NC(=O)[C@@H](NC(=O)C2CC2)CCC(=O)NCC[C@@H](C(=O)N[C@@H](Cc2c[nH]c3ccccc23)C(N)=O)NC1=O [Example 9.19, cyclo-propanoyl-cyclo(Glu-His-D-Phe-Arg-Dab)-Trp-NH2]
Ki (hMCR-1a): 3 nM

CCCC[C@H](NC(C)=O)C(=O)N[C@H]1CCC(=O)NCC[C@@H](C(N)=O)NC(=O)[C@H](CCCNC(=N)N)NC(=O)[C@@H](Cc2cccc(Cl)c2)NC(=O)[C@H](CCCN)NC1=O [Example 9.58, Ac-Nle-cyclo(Glu-Orn-D-Phe(3-Cl)-Arg-Dab)-NH2] (Ac-[Nle]E[Orn][dPhe(3-Cl)]R[Dab]-NH2; lactam 2-6)
Ki (hMCR-4): 10000 nM
Ki (hMCR-1a): 35 nM
EC50 (hMCR-1): 2 nM

CCCC[C@H](NC(C)=O)C(=O)N[C@H]1CCC(=O)NCC[C@@H](C(=O)N[C@@H](CCCCN)C(N)=O)NC(=O)[C@H](CCCNC(=N)N)NC(=O)[C@@H](Cc2ccccc2)NC(=O)[C@H](Cc2c[nH]cn2)NC1=O [Example 9.52, Ac-Nle-cyclo(Glu-His-D-Phe-Arg-Dab)-Lys-NH2] (Ac-[Nle]EH[dF]R[Dab]K-NH2; lactam 2-6)
MC-1 Emax (average; cAMP HBL) (hMCR-1): 91% ^

CCCC[C@H](NC(C)=O)C(=O)N[C@H]1CCC(=O)NCC[C@@H](C(N)=O)NC(=O)[C@H](CCCNC(=N)N)NC(=O)[C@@H](Cc2ccccc2)NC(=O)[C@H](Cc2c[nH]cn2)NC1=O [Example 9.44, Ac-Nle-cyclo(Glu-His-D-Phe-Arg-Dab)-NH2] (Ac-[Nle]EH[dF]R[Dab]-NH2; lactam 2-6)
MC-1 Emax (average; cAMP HBL) (hMCR-1): 85% ^

CCCC[C@H](NC(C)=O)C(=O)N[C@H]1CCC(=O)NCC[C@@H](C(=O)N[C@@H](Cc2c[nH]c3ccccc23)C(N)=O)NC(=O)[C@H](CCCNC(=N)N)NC(=O)[C@@H](Cc2ccccc2)NC(=O)[C@H](Cc2c[nH]cn2)NC1=O [Example 9.31, Ac-Nle-cyclo(Glu-His-D-Phe-Arg-Dab)-Trp-OH]
Ki (hMCR-4): 10000 nM
MC-1 Emax (average; cAMP HBL) (hMCR-1): 79% ^

CCCC[C@H](NC(C)=O)C(=O)N[C@H]1CCC(=O)NCC[C@@H](C(N)=O)NC(=O)[C@H](CCCNC(=N)N)NC(=O)[C@@H](Cc2ccc(C)cc2)NC(=O)[C@H](CCCN)NC1=O [Example 9.63, Ac-Nle-cyclo(Glu-Orn-D-Phe(4-Me)-Arg-Dab)-NH2] (Ac-[Nle]E[Orn][dPhe(4-Me)]R[Dab]-NH2; lactam 2-6)
Ki (hMCR-4): 10000 nM
Ki (hMCR-1a): 3 nM

CCCC[C@H](NC(C)=O)C(=O)N[C@H]1CCC(=O)NCC[C@@H](C(N)=O)NC(=O)[C@@H](Cc2ccccc2)NC(=O)[C@H](Cc2c[nH]cn2)NC1=O [Example 9.46, Ac-Nle-cyclo(Glu-His-D-Phe-Dab)-NH2] (Ac-[Nle]EH[dF][Dab]-NH2; lactam 2-5)
Ki (hMCR-4): 10000 nM
Ki (hMCR-1a): 10000 nM

CCCC[C@H](NC(C)=O)C(=O)N[C@H]1CCC(=O)NCC[C@@H](C(=O)N[C@@H](Cc2c[nH]c3ccccc23)C(N)=O)NC(=O)[C@H](C)NC(=O)[C@@H](Cc2ccccc2)NC(=O)[C@H](Cc2c[nH]cn2)NC1=O [Example 9.48, Ac-Nle-cyclo(Glu-His-D-Phe-Ala-Dab)-Trp-NH2] (Ac-[Nle]EH[dF]A[Dab]W-NH2; lactam 2-6)
MC-1 Emax (average; cAMP HBL) (hMCR-1): 72% ^

CCCC[C@H](NC(C)=O)C(=O)N[C@H]1CCC(=O)NCC[C@@H](C(=O)N[C@@H](Cc2c[nH]c3ccccc23)C(N)=O)NC(=O)[C@H](CCCNC(=N)N)NC(=O)[C@@H](Cc2ccccc2)NC(=O)[C@H](C)NC1=O [Example 9.49, Ac-Nle-cyclo(Glu-Ala-D-Phe-Arg-Dab)-Trp-NH2]
MC-1 Emax (average; cAMP HBL) (hMCR-1): 86% ^

CCCC[C@H](NC(C)=O)C(=O)N[C@H]1CCC(=O)NCC[C@@H](C(=O)N[C@@H](Cc2c[nH]c3ccccc23)C(N)=O)NC(=O)[C@H](CCCNC(=N)N)NC(=O)[C@@H](Cc2ccccc2)NC(=O)[C@H](CCCNC(N)=O)NC1=O [Example 9.51, Ac-Nle-cyclo(Glu-Cit-D-Phe-Arg-Dab)-Trp-NH2]
MC-1 Emax (average; cAMP HBL) (hMCR-1): 97% ^

CCCC[C@H](NC(C)=O)C(=O)N[C@H]1CCC(=O)NCC[C@@H](C(=O)N[C@@H](Cc2c[nH]c3ccccc23)C(N)=O)NC(=O)CNC(=O)[C@@H](Cc2ccccc2)NC(=O)[C@H](Cc2c[nH]cn2)NC1=O [Example 9.47, Ac-Nle-cyclo(Glu-His-D-Phe-Gly-Dab)-Trp-NH2] (Ac-[Nle]EH[dF]G[Dab]W-NH2; lactam 2-6)
MC-1 Emax (average; cAMP HBL) (hMCR-1): 59%

N=C(N)NCCC[C@@H]1NC(=O)[C@@H](Cc2ccccc2)NC(=O)[C@H](Cc2c[nH]cn2)NC(=O)[C@@H](NC(=O)CC2CCCC2)CCC(=O)NCC[C@@H](C(=O)N[C@@H](Cc2c[nH]c3ccccc23)C(N)=O)NC1=O [Example 9.21, cyclopentyl acetyl-cyclo(Glu-His-D-Phe-Arg-Dab)-Trp-NH2]
Ki (hMCR-1a): 0.01 nM
EC50 (hMCR-1): 0.004 nM

CCCC[C@H](NC(C)=O)C(=O)N[C@H]1CCC(=O)NCC[C@@H](C(=O)N[C@@H](Cc2c[nH]c3ccccc23)C(N)=O)NC(=O)[C@H](CCCNC(=N)N)NC(=O)[C@@H](Cc2ccccc2)NC(=O)[C@H]2CCCN2C1=O [Example 9.66, Ac-Nle-cyclo(Glu-Pro-D-Phe-Arg-Dab)-Trp-NH2]
Ki (hMCR-4): 185 nM
Ki (hMCR-1a): 3 nM

CCCC[C@H](NC(C)=O)C(=O)N[C@H]1CCC(=O)NCC[C@@H](C(=O)N[C@@H](Cc2c[nH]c3ccccc23)C(N)=O)NC(=O)[C@H](CCCNC(=N)N)NC(=O)[C@@H](Cc2ccccc2)NC(=O)[C@H](CCCNC(=N)N)NC1=O [Example 9.50, Ac-Nle-cyclo(Glu-Arg-D-Phe-Arg-Dab)-Trp-NH2]
MC-1 Emax (average; cAMP HBL) (hMCR-1): 100% ^
